Data taken from patent publication EP4768018A1, “TOPICAL GEL FOR JAK INHIBITOR AND USE THEREOF” (Prime Gene Therapeutics Co., Ltd., priority 2023, dated 2025).
Values after ≈ are worked out from the molar mass of the structure shown. Values belong to the compound of their own block, whether it stands above or below them.

What was measured:
[1] = Solubility of crystal forms in 20% propylene glycol at 32°C; format: physicochemical
Procedure: (§1) Solubility Study of Various Crystal Forms
Solubility in 20% Propylene Glycol at 32°C (µg/mL)

[2] = Solubility of crystal forms at different pH (37°C, 24 h); format: physicochemical
Procedure: as §1
Solubility Measurement Results (37°C, 24 h)

[3] = Long-term (24 months) stability study of crystal forms; format: physicochemical; settings: for stability study result in words: 24 months
Procedure: In accordance with the stability study guidelines issued by the China's National Medical Products Administration (NMPA), stability studies were conducted on Crystal Forms I, IIa, and IIb. Samples were packaged in pharmaceutical low-density polyethylene bags, and long-term stability (24 months) was evaluated.

[4] = Crystal form conversion (room temperature; in the gel formulation, XRPD); format: physicochemical; settings: for crystal form of the active pharmaceutical ingredient in the final gel formulation: after 3 days, XRPD, FIG. 5 to FIG. 6
Procedure: Crystal Form IIa converts to Crystal Form IIb within 1 hour at room temperature (58.6% RH). During the preparation of topical gel formulation, Crystal Form I and Crystal Form IIb were respectively used as active pharmaceutical ingredients.

[5] = Transdermal test of crystal forms as topical gel in rats (permeation, drug content in skin by LC/MS/MS); format: in vivo, rat; settings: topical gel according to the compositions of Example 1; FIG. 10A and FIG. 10B; Crystal Form I versus Crystal Form IIb
Procedure: Crystal Forms I and IIb were prepared into topical gel formulations according to the compositions of Example 1, and transdermal tests were immediately conducted to determine their respective transdermal rates.
Blood samples were collected at 0.25, 0.5, 1, 2, 4, 6, 8, and 24 hours after topical administration. Using a small animal anesthesia machine, 0.3 mL of whole blood was collected from the retro-orbital venous plexus under isoflurane anesthesia and placed in heparin anticoagulant tubes. Samples were centrifuged at 4°C, 4000 rpm for 5 minutes, plasma was transferred to centrifuge tubes, and stored at -80°C until analysis. Samples in plasma were extracted using protein precipitation, and the extract was analyzed by LC/MS/MS. After the test, the drug on skin was washed off, and the rat skin at administration site was excised, homogenized, and analyzed by LC/MS/MS for drug content in the skin. Table 4 Drug Concentration in Skin 24 h After Topical Administration

[6] = Storage stability of Crystal Form III (NMR); format: physicochemical
Procedure: Add 15 mg of 2-{3-[3-amino-4-(7H-pyrrolo[2,3-d]pyrimidin-4-yl)-1H-pyrazol-1-yl]-1-(isopropylsulfonyl)azetidin-3-yl}acetonitrile to 3 mL of dioxane, heat to 40°C to dissolve and obtain a clear solution, filter, and allow the solution to crystallize by evaporation at 40°C to obtain Crystal Form III.

Solubility in 20% Propylene Glycol at 32°C ([1]; 10 min): 12.7 µg/mL (≈ 31.7 µM) | Solubility in 20% Propylene Glycol at 32°C ([1]; 30 min): 26.9 µg/mL (≈ 67.2 µM) | Solubility in 20% Propylene Glycol at 32°C ([1]; 1 h, 60 min): 35.8 µg/mL (≈ 89.4 µM) | Solubility in 20% Propylene Glycol at 32°C ([1]; 2 h, 120 min): 42.1 µg/mL (≈ 105 µM) | Solubility Conc. ([2]; pH 1.0, 1440 min): 464.2 µg/mL (≈ 1160 µM) | Solubility Conc. ([2]; pH 2.0, 1440 min): 37.8 µg/mL (≈ 94.4 µM) | Solubility Conc. ([2]; pH 3.8, 1440 min): 2.3 µg/mL (≈ 5.74 µM) | Solubility Conc. ([2]; pH 4.5, 1440 min): 1.8 µg/mL (≈ 4.49 µM) | Solubility Conc. ([2]; pH 5.5, 1440 min): 1.6 µg/mL (≈ 4 µM) | Appearance ([3]; 0 month): Off-white powder | Content ([3]; 0 month): 99.9% | Loss on Drying ([3]; 0 month): 0.08% | Related Substances Max Unknown Single Impurity ([3]; 0 month): 0.17% | Related Substances Total Impurity ([3]; 0 month): 0.58% | Appearance ([3]; 3 month): Off-white powder | Loss on Drying ([3]; 3 month): 0.06% | Related Substances Max Unknown Single Impurity ([3]; 3 month): 0.16% | Related Substances Total Impurity ([3]; 3 month): 0.57% | Content ([3]; 3 month, 131040 min): 100.1% | Appearance ([3]; 6 month): Off-white powder | Loss on Drying ([3]; 6 month): 0.08% | Related Substances Max Unknown Single Impurity ([3]; 6 month): 0.17% | Related Substances Total Impurity ([3]; 6 month): 0.57% | Content ([3]; 6 month, 263520 min): 100.0% | Appearance ([3]; 9 month): Off-white powder | Loss on Drying ([3]; 9 month): 0.11% | Related Substances Max Unknown Single Impurity ([3]; 9 month): 0.17% | Related Substances Total Impurity ([3]; 9 month): 0.57% | Content ([3]; 9 month, 394560 min): 99.8% | Appearance ([3]; 12 month): Off-white powder | Loss on Drying ([3]; 12 month): 0.09% | Related Substances Max Unknown Single Impurity ([3]; 12 month): 0.17% | Related Substances Total Impurity ([3]; 12 month): 0.55% | Content ([3]; 12 month, 525600 min): 99.9% | Appearance ([3]; 18 month): Off-white powder | Loss on Drying ([3]; 18 month): 0.12% | Related Substances Max Unknown Single Impurity ([3]; 18 month): 0.18% | Related Substances Total Impurity ([3]; 18 month): 0.62% | Content ([3]; 18 month, 789120 min): 99.7% | Appearance ([3]; 24 month): Off-white powder | Loss on Drying ([3]; 24 month): 0.10% | Related Substances Max Unknown Single Impurity ([3]; 24 month): 0.16% | Related Substances Total Impurity ([3]; 24 month): 0.59% | Content ([3]; 24 month, 1.0512e+06 min): 99.8% | stability study result in words [3]: good chemical stability | crystal form of the active pharmaceutical ingredient in the final gel formulation [4]: exclusively in form IIb | transdermal performance [5]: better transdermal performance
SMILES: CC(C)S(=O)(=O)N1CC(CC#N)(n2cc(-c3ncnc4[nH]ccc34)c(N)n2)C1 [Crystal Form I, 2-{3-[3-amino-4-(7H-pyrrolo[2,3-d]pyrimidin-4-yl)-1H-pyrazol-1-yl]-1-(isopropylsulfonyl)azetidin-3-yl}acetonitrile Crystal Form I]

Appearance ([3]; 0 month): Off-white powder | Content ([3]; 0 month): 99.8% | Crystal Form ([3]; 0 month): IIa | Loss on Drying ([3]; 0 month): 0.06% | Related Substances Max Unknown Single Impurity ([3]; 0 month): 0.06% | Related Substances Total Impurity ([3]; 0 month): 0.28% | Appearance ([3]; 3 month): Off-white powder | Crystal Form ([3]; 3 month): IIb | Loss on Drying ([3]; 3 month): 0.18% | Related Substances Max Unknown Single Impurity ([3]; 3 month): 0.08% | Related Substances Total Impurity ([3]; 3 month): 0.28% | Content ([3]; 3 month, 131040 min): 97.6% | Appearance ([3]; 6 month): Off-white powder | Crystal Form ([3]; 6 month): IIb | Loss on Drying ([3]; 6 month): 0.19% | Related Substances Max Unknown Single Impurity ([3]; 6 month): 0.11% | Related Substances Total Impurity ([3]; 6 month): 0.27% | Content ([3]; 6 month, 263520 min): 97.8% | Appearance ([3]; 9 month): Off-white powder | Crystal Form ([3]; 9 month): IIb | Loss on Drying ([3]; 9 month): 0.24% | Related Substances Max Unknown Single Impurity ([3]; 9 month): 0.06% | Related Substances Total Impurity ([3]; 9 month): 0.24% | Content ([3]; 9 month, 394560 min): 97.9% | Appearance ([3]; 12 month): Off-white powder | Crystal Form ([3]; 12 month): IIb | Loss on Drying ([3]; 12 month): 0.20% | Related Substances Max Unknown Single Impurity ([3]; 12 month): 0.09% | Related Substances Total Impurity ([3]; 12 month): 0.22% | Content ([3]; 12 month, 525600 min): 97.8% | Appearance ([3]; 18 month): Off-white powder | Crystal Form ([3]; 18 month): IIb | Loss on Drying ([3]; 18 month): 0.16% | Related Substances Max Unknown Single Impurity ([3]; 18 month): 0.07% | Related Substances Total Impurity ([3]; 18 month): 0.26% | Content ([3]; 18 month, 789120 min): 98.0% | Appearance ([3]; 24 month): Off-white powder | Crystal Form ([3]; 24 month): IIb | Loss on Drying ([3]; 24 month): 0.25% | Related Substances Max Unknown Single Impurity ([3]; 24 month): 0.08% | Related Substances Total Impurity ([3]; 24 month): 0.29% | Content ([3]; 24 month, 1.0512e+06 min): 97.8% | time of conversion to Crystal Form IIb ([4]; room temperature (58.6% RH)): ≤ 1 h
SMILES: CC(C)S(=O)(=O)N1CC(CC#N)(n2cc(-c3ncnc4[nH]ccc34)c(N)n2)C1 [Crystal Form IIa, 2-{3-[3-amino-4-(7H-pyrrolo[2,3-d]pyrimidin-4-yl)-1H-pyrazol-1-yl]-1-(isopropylsulfonyl)azetidin-3-yl}acetonitrile Crystal Form IIa]
stability study result in words [3]: gradually absorbs moisture during storage and converts to Crystal Form IIb

Solubility in 20% Propylene Glycol at 32°C ([1]; 10 min): 6.1 µg/mL (≈ 15.2 µM) | Solubility in 20% Propylene Glycol at 32°C ([1]; 30 min): 9.5 µg/mL (≈ 23.7 µM) | Solubility in 20% Propylene Glycol at 32°C ([1]; 1 h, 60 min): 10.8 µg/mL (≈ 27 µM) | Solubility in 20% Propylene Glycol at 32°C ([1]; 2 h, 120 min): 11.2 µg/mL (≈ 28 µM) | Solubility in 20% Propylene Glycol at 32°C ([1]; 18 h, 1080 min): 13.3 µg/mL (≈ 33.2 µM) | Solubility Conc. ([2]; pH 1.0, 1440 min): 149.9 µg/mL (≈ 374 µM) | Solubility Conc. ([2]; pH 2.0, 1440 min): 17.4 µg/mL (≈ 43.4 µM) | Solubility Conc. ([2]; pH 3.8, 1440 min): 0.9 µg/mL (≈ 2.25 µM) | Solubility Conc. ([2]; pH 4.5, 1440 min): 0.7 µg/mL (≈ 1.75 µM) | Solubility Conc. ([2]; pH 5.5, 1440 min): 0.5 µg/mL (≈ 1.25 µM) | Solubility Conc. ([2]; pH 6.8, 1440 min): 0.6 µg/mL (≈ 1.5 µM) | Solubility Conc. ([2]; pH 7.0, 1440 min): 0.8 µg/mL (≈ 2 µM) | Solubility Conc. ([2]; pH 8.0, 1440 min): 0.7 µg/mL (≈ 1.75 µM) | Appearance ([3]; 0 month): Off-white powder | Content ([3]; 0 month): 99.7% | Crystal Form ([3]; 0 month): IIb | Loss on Drying ([3]; 0 month): 0.36% | Related Substances Max Unknown Single Impurity ([3]; 0 month): 0.07% | Related Substances Total Impurity ([3]; 0 month): 0.38% | Appearance ([3]; 3 month): Off-white powder | Crystal Form ([3]; 3 month): IIb | Loss on Drying ([3]; 3 month): 0.36% | Related Substances Max Unknown Single Impurity ([3]; 3 month): 0.08% | Related Substances Total Impurity ([3]; 3 month): 0.38% | Content ([3]; 3 month, 131040 min): 99.7% | Appearance ([3]; 6 month): Off-white powder | Crystal Form ([3]; 6 month): IIb | Loss on Drying ([3]; 6 month): 0.39% | Related Substances Max Unknown Single Impurity ([3]; 6 month): 0.08% | Related Substances Total Impurity ([3]; 6 month): 0.37% | Content ([3]; 6 month, 263520 min): 99.6% | Appearance ([3]; 9 month): Off-white powder | Crystal Form ([3]; 9 month): IIb | Loss on Drying ([3]; 9 month): 0.34% | Related Substances Max Unknown Single Impurity ([3]; 9 month): 0.08% | Related Substances Total Impurity ([3]; 9 month): 0.38% | Content ([3]; 9 month, 394560 min): 99.5% | Appearance ([3]; 12 month): Off-white powder | Crystal Form ([3]; 12 month): IIb | Loss on Drying ([3]; 12 month): 0.30% | Related Substances Max Unknown Single Impurity ([3]; 12 month): 0.07% | Related Substances Total Impurity ([3]; 12 month): 0.37% | Content ([3]; 12 month, 525600 min): 99.6% | Appearance ([3]; 18 month): Off-white powder | Crystal Form ([3]; 18 month): IIb | Loss on Drying ([3]; 18 month): 0.31% | Related Substances Max Unknown Single Impurity ([3]; 18 month): 0.07% | Related Substances Total Impurity ([3]; 18 month): 0.39% | Content ([3]; 18 month, 789120 min): 99.6% | Appearance ([3]; 24 month): Off-white powder | Crystal Form ([3]; 24 month): IIb | Loss on Drying ([3]; 24 month): 0.32% | Related Substances Max Unknown Single Impurity ([3]; 24 month): 0.08% | Related Substances Total Impurity ([3]; 24 month): 0.39% | Content ([3]; 24 month, 1.0512e+06 min): 99.7% | stability study result in words [3]: good chemical stability | crystal form of the active pharmaceutical ingredient in the final gel formulation [4]: exclusively in form IIb
SMILES: CC(C)S(=O)(=O)N1CC(CC#N)(n2cc(-c3ncnc4[nH]ccc34)c(N)n2)C1 [Crystal Form IIb, 2-{3-[3-amino-4-(7H-pyrrolo[2,3-d]pyrimidin-4-yl)-1H-pyrazol-1-yl]-1-(isopropylsulfonyl)azetidin-3-yl}acetonitrile Crystal Form IIb]

impurity formation ([6]; after storage, NMR): approximately 10% | stability ([6]; in words): poor stability
SMILES: CC(C)S(=O)(=O)N1CC(CC#N)(n2cc(-c3ncnc4[nH]ccc34)c(N)n2)C1 [Crystal Form III, 2-{3-[3-amino-4-(7H-pyrrolo[2,3-d]pyrimidin-4-yl)-1H-pyrazol-1-yl]-1-(isopropylsulfonyl)azetidin-3-yl}acetonitrile Crystal Form III]
